Assays:
[1] = biological target: FTase (wild-type protein farnesyltransferase) (Rattus norvegicus, UniProt Q02293+Q04631); test: Single-turnover; format: biochemical; details: 800 nM FTase, 200 nM FPP, 25 μM peptide, 5 μM MDCC-PBP, 34 units mL^−1 PPiase, 50 mM HEPPSO pH 7.8, 5 mM TCEP, 5 mM MgCl2, 25 °C; for Single turnover rate constant kSTO, X=S: dansyl-GCVa2S panel
FTase = FTase (Rattus norvegicus, UniProt Q02293+Q04631); test: Radioactive assay of FTase-catalyzed farnesylation; format: biochemical; details: data not shown, farnesylated slowly
Chain of FTase (Q02293 whole entry, one chain of several): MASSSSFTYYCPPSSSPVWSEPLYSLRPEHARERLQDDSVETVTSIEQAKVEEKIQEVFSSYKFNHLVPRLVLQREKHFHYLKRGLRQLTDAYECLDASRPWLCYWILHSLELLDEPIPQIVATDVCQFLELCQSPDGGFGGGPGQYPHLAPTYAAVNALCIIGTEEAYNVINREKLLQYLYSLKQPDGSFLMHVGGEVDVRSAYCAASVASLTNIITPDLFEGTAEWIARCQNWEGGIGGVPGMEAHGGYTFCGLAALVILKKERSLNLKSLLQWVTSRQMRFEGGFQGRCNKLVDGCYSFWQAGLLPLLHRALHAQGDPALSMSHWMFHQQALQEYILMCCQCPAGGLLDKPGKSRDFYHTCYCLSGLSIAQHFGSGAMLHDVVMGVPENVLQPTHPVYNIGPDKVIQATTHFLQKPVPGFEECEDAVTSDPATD

Single turnover rate constant kSTO, X=S [1]	Substance	other results
	dansyl-GCVGM	Single turnover rate constant kSTO, X=M ([1]; dansyl-GCVa2M panel): 0.26 ± 0.01 s⁻¹
0.092 ± 0.004 s⁻¹	dansyl-GCVGS	
3.8 ± 0.5 s⁻¹	dansyl-GCVLS	
	dansyl-GCVRS	apparent value for kcat/KM (FTase): < 1000 M⁻¹ s⁻¹
